Assay results from US20250388582A1, “NOVEL BICYCLIC HETEROARYL COMPOUND AND USE THEREOF” (ILDONG PHARMACEUTICAL CO., LTD., priority 2022, published 2025).

Target: T1, human GST-PIKFYVE (Homo sapiens, UniProt Q9Y2I7)
T1 construct: GST; purchased Carna biosciences 11-118
Assay: ADP-Glo kinase assay, enzyme inhibition activity against human PIKFYVE (Carna biosciences)
Type: biochemical
Details: inhibitory activity at final compound concentration 10 nM; 1 hour at room temperature
Protocol: The enzyme inhibition activity values for the compounds according to Examples against human PIKFYVE were calculated using the ADP-Glo™ kinase assay service of Carna biosciences, Inc. The enzyme activity evaluation method provided by Carna biosciences Inc., is shown below.
Enzyme inhibition activity was evaluated by reacting the compounds according to Examples with human GST-PIKFYVE (11-118, Carna biosciences), which was purified using glutathione Sepharose chromatography. The reaction buffer used was composed of 50 mmol/L MOPS, 1 mmol/L DTT, and pH 7.2, and all reactions of the test distilled water were performed in the buffer.
Compounds were prepared as solutions in 100% DMSO as 100× stocks and adjusted to have a final sample concentration of 10 nM.
The substrate-enzyme reaction for PIKFYVE was performed by mixing 5 μL human GST-PIKFYVE, 5 μL compounds according to Examples, 5 μL enzyme substrate, and 5 μL purified ATP and reacting for 1 hour at room temperature. After the substrate-enzyme reaction, 20 μL ADP-Glo™ Reagent was added and reacted at room temperature for 40 minutes, then 40 μL Kinase Detection Reagent was added and reacted at room temperature for 40 minutes.
After completion of the reaction, the degree of enzyme activity inhibition was measured by luminescence. The fluorescence of the enzyme activity in the solvent control group […] was set to 100%, and the fluorescence of the enzyme activity in the solvent control group without compound treatment was set to 0%. The inhibitory activity of each compound according to Examples was calculated based on these values.

T1 sequence (Q9Y2I7 whole entry): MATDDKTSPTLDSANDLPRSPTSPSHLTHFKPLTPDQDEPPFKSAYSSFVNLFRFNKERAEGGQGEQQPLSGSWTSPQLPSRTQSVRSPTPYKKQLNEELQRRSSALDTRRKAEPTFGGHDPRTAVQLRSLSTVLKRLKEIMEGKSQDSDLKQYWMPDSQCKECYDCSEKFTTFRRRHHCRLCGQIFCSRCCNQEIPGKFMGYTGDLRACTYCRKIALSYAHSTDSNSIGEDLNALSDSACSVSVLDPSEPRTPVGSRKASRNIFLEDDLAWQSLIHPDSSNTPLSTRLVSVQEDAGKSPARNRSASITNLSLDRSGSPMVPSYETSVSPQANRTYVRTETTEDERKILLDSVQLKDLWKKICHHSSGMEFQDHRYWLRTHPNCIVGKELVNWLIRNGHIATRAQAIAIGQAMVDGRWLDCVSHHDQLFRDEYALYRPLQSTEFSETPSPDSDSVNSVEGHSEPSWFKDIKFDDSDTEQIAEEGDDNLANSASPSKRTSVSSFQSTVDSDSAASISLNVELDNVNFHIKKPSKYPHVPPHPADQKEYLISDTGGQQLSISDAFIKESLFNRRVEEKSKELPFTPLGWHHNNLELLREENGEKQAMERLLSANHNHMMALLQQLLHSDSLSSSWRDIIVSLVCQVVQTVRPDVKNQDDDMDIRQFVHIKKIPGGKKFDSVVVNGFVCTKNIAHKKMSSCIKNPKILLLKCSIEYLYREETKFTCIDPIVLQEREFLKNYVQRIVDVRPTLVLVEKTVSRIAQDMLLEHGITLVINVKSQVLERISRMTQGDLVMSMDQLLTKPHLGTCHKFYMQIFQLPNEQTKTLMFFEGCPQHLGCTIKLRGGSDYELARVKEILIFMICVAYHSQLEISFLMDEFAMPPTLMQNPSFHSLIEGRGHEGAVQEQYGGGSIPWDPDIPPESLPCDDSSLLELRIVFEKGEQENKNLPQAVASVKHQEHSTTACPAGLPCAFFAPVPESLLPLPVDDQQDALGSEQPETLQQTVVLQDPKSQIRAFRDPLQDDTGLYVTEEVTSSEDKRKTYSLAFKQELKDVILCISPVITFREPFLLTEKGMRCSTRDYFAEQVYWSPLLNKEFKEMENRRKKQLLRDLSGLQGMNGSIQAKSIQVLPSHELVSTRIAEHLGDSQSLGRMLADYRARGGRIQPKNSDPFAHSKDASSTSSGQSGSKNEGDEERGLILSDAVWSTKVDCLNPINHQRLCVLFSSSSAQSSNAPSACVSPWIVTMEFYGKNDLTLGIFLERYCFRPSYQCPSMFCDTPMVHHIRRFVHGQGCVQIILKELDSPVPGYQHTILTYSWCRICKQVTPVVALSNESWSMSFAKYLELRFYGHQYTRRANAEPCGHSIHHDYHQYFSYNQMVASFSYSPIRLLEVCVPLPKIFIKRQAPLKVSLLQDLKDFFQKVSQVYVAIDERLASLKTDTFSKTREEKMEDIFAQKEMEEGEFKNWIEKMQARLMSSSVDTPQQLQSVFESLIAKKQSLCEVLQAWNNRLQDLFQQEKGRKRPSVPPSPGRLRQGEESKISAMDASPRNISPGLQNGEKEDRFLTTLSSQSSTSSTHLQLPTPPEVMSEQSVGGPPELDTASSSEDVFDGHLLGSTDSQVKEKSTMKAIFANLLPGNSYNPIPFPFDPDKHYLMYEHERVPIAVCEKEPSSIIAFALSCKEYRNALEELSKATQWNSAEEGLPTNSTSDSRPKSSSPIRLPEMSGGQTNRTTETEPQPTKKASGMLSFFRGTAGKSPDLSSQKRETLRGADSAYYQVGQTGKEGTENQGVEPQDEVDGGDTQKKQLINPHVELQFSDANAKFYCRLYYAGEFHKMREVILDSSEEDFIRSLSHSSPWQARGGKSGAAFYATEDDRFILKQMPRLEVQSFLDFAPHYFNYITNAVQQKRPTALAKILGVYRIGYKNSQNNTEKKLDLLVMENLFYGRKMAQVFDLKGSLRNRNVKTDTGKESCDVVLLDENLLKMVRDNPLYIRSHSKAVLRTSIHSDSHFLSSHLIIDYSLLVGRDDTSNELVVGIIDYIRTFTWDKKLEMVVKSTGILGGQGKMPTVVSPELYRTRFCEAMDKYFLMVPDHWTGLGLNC

SMILES	ADP-Glo kinase assay (%, 10 nM) [%]
Cc1cccc(/C=N/Nc2nc(N3CCOCC3)nc3c(-c4ccccc4)cn(C)c23)c1 [Example 9, (E)-4-(5-methyl-4-(2-(3-methylbenzylidene)hydrazinyl)-7-phenyl-5H-pyrrolo[3,2-d]pyrimidin-2-yl)morpholine]	51.47
Cc1cccc(/C=N/Nc2nc(N3CCOCC3)nc3c2cnn3-c2cccnc2)c1 [Example 13, (E)-4-(4-(2-(3-methylbenzylidene)hydrazinyl)-1-(pyridin-3-yl)-1H-pyrazolo[3,4-d]pyrimidin-6-yl)morpholine]	51.68
Cc1cccc(/C=N/Nc2nc(N3CCOCC3)nc3c2cnn3-c2ccncc2)c1 [Example 16, (E)-4-(4-(2-(3-methylbenzylidene)hydrazinyl)-1-(pyridin-4-yl)-1H-pyrazolo[3,4-d]pyrimidin-6-yl)morpholine]	63.02
Cc1cccc(/C=N/Nc2nc(N3CCOCC3)nc3c2ncn3CC(=O)C2CC2)c1 [Example 19, (E)-1-cyclopropyl-2-(6-(2-(3-methylbenzylidene)hydrazinyl)-2-morpholino-9H-purin-9-yl)ethan-1-one]	58.67
Cc1cccc(/C=N/Nc2nc(N3CCOCC3)nc3c2ncn3CC(=O)N2CCc3ccccc32)c1 [Example 29, (E)-1-(indolin-1-yl)-2-(6-(2-(3-methylbenzylidene)hydrazinyl)-2-morpholino-9H-purin-9-yl)ethan-1-one]	55.15
COc1cccc(C(=O)Cn2cnc3c(N/N=C/c4cccc(C)c4)nc(N4CCOCC4)nc32)c1 [Example 38, (E)-1-(3-methoxyphenyl)-2-(6-(2-(3-methylbenzylidene)hydrazinyl)-2-morpholino-9H-purin-9-yl)ethan-1-one]	82.96
Cc1cccc(/C=N/Nc2nc(N3CCOCC3)nc3c2ncn3CC(=O)c2ccc(F)cc2)c1 [Example 47, (E)-1-(4-fluorophenyl)-2-(6-(2-(3-methylbenzylidene)hydrazinyl)-2-morpholino-9H-purin-9-yl)ethan-1-one]	60.82
Cc1cccc(/C=N/Nc2nc(N3CCOCC3)nc3c2ncn3CC(=O)c2cccc(OC(F)(F)F)c2)c1 [Example 50, (E)-2-(6-(2-(3-methylbenzylidene)hydrazinyl)-2-morpholino-9H-purin-9-yl)-1-(3-(trifluoromethoxy)phenyl)ethan-1-one]	54.37
Cc1cccc(/C=N/Nc2nc(N3CCOCC3)nc3c2ncn3CC(=O)c2ccc(N3CCOCC3)cc2N2CCOCC2)c1 [Example 51, (E)-1-(2,4-dimorpholinophenyl)-2-(6-(2-(3-methylbenzylidene)hydrazinyl)-2-morpholino-9H-purin-9-yl)ethan-1-one]	66.19
Cc1cccc(/C=N/Nc2nc(N3CCOCC3)nc3c2ncn3CC(=O)c2cnccn2)c1 [Example 54, (E)-2-(6-(2-(3-methylbenzylidene)hydrazinyl)-2-morpholino-9H-purin-9-yl)-1-(pyrazin-2-yl)ethan-1-one]	58.10
COc1cccc(-c2ccn(-c3nc(N4CCOCC4)nc4c3ncn4CC(=O)c3ccccn3)n2)c1 [Example 68, 2-(6-(3-(3-methoxyphenyl)-1H-pyrazol-1-yl)-2-morpholino-9H-purin-9-yl)-1-(pyridin-2-yl)ethan-1-one]	56.03
Cc1cccc(/C=N/Nc2nc(N3CCOCC3)nc3c2ncn3C2CN(C(=O)c3ccccc3)C2)c1 [Example 81, (E)-(3-(6-(2-(3-methylbenzylidene)hydrazinyl)-2-morpholino-9H-purin-9-yl)azetidin-1-yl)(phenyl)methanone]	60.34
Cc1cccc(/C=N/Nc2nc(N3CCOCC3)nc3c2ncn3C2CN(C(=O)c3cccnc3)C2)c1 [Example 82, (E)-3-(6-(2-(3-methylbenzylidene)hydrazinyl)-2-morpholino-9H-purin-9-yl)azetidin-1-yl (pyridin-3-yl)methanone]	60.95
COC(=O)N1CC(n2cnc3c(N/N=C/c4cccc(C)c4)nc(N4CCOCC4)nc32)C1 [Example 83, methyl (E)-3-(6-(2-(3-methylbenzylidene)hydrazinyl)-2-morpholino-9H-purin-9-yl)azetidine-1-carboxylate]	63.61
Cc1cccc(/C=N/Nc2nc(N3CCOCC3)nc3c2ncn3C2CCN(C(=O)c3ccccn3)CC2)c1 [Example 94, (E)-(4-(6-(2-(3-methylbenzylidene)hydrazinyl)-2-morpholino-9H-purin-9-yl)piperidin-1-yl)(pyridin-2-yl)methanone]	58.50
Cc1cccc(/C=N/Nc2nc(N3C[C@H]4C[C@@H]3CO4)nc3c2ncn3-c2cccnc2)c1 [Example 98, (1R,4R)-5-(6-(2-(3-methylbenzylidene)hydrazinyl)-9-(pyridin-3-yl)-9H-purin-2-yl)-oxa-5-azabicyclo[2.2.1]heptane]	91.62
Cc1cccc(/C=N/Nc2nc(N3CCOCC3)nc3c2ncn3-c2nccs2)c1 [Example 117, (E)-4-(6-(2-(3-methylbenzylidene)hydrazinyl)-9-(thiazol-2-yl)-9H-purin-2-yl)morpholine]	67.79
Cc1cccc(/C=N/Nc2nc(N3CCOCC3)nc3c2ncn3-c2cccc(C(F)(F)F)c2)c1 [Example 130, (E)-4-(6-(2-(3-methylbenzylidene)hydrazinyl)-9-(3-(trifluoromethyl)phenyl)-9H-purin-2-yl)morpholine]	69.14
COc1ccc(-n2cnc3c(-n4ccc(-c5cccc(C)c5)n4)nc(N4CCOCC4)nc32)cc1 [Example 134, 4-(9-(4-methoxyphenyl)-6-(3-(m-tolyl)-1H-pyrazol-1-yl)-9H-purin-2-yl)morpholine]	59.84
Cc1cccc(-c2ccn(-c3nc(N4CCOCC4)nc4c3ncn4-c3cccc(Cl)c3)n2)c1 [Example 135, 4-(9-(3-chlorophenyl)-6-(3-(m-tolyl)-1H-pyrazol-1-yl)-9H-purin-2-yl)morpholine]	51.18

Second part, the compound after the results:

ADP-Glo kinase assay (%, 10 nM) [%]	SMILES
64.23	Cc1cccc(-c2ccn(-c3nc(N4CCOCC4)nc4c3ncn4-c3cccc(OC4CC4)c3)n2)c1 [Example 138, 4-(9-(3-cyclopropoxyphenyl)-6-(3-(m-tolyl)-1H-pyrazol-1-yl)-9H-purin-2-yl)morpholine]
68.43	Cc1cccc(/C=N/Nc2nc(N3CCOCC3)nc3c2ncn3-c2ncccc2C)c1 [Example 142, (E)-4-(6-(2-(3-methylbenzylidene)hydrazinyl)-9-(3-methylpyridin-2-yl)-9H-purin-2-yl)morpholine]
63.58	Cc1cccc(/C=N/Nc2nc(N3CCOCC3)nc3c2nc(C)n3-c2cc(C)n(C)n2)c1 [Example 153, (E)-4-(9-(1,5-dimethyl-1H-pyrazol-3-yl)-8-methyl-6-(2-(3-methylbenzylidene)hydrazinyl)-9H-purin-2-yl)morpholine]
65.90	Cc1cccc(/C=N/Nc2nc(N3CCOCC3)nc3c2nc(C)n3CC(=O)c2ccccc2)c1 [Example 156, (E)-2-(8-methyl-6-(2-(3-methylbenzylidene)hydrazinyl)-2-morpholino-9H-purin-9-yl)-1-phenylethan-1-one]
63.93	Cc1cccc(/C=N/Nc2nc(N3CCOCC3)nc3c2nc(C)n3CC(=O)c2cccnc2)c1 [Example 158, (E)-2-(8-methyl-6-(2-(3-methylbenzylidene)hydrazinyl)-2-morpholino-9H-purin-9-yl)-1-(pyridin-3-yl)ethan-1-one]
65.33	Cc1cccc(/C=N/Nc2nc(N3CCOCC3)nc3c2nc(C)n3CC(=O)c2ccncc2)c1 [Example 159, (E)-2-(8-methyl-6-(2-(3-methylbenzylidene)hydrazinyl)-2-morpholino-9H-purin-9-yl)-1-(pyridin-4-yl)ethan-1-one]
77.75	COc1cccc(-n2c(C)nc3c(N/N=C/c4cccc(C)c4)nc(N4CCOCC4)nc32)c1 [Example 160, (E)-4-(9-(3-methoxyphenyl)-8-methyl-6-(2-(3-methylbenzylidene)hydrazinyl)-9H-purin-2-yl)morpholine]
79.72	COc1ccc(-n2c(C)nc3c(N/N=C/c4cccc(C)c4)nc(N4CCOCC4)nc32)cc1 [Example 161, (E)-4-(9-(4-methoxyphenyl)-8-methyl-6-(2-(3-methylbenzylidene)hydrazinyl)-9H-purin-2-yl)morpholine]
78.79	Cc1cccc(/C=N/Nc2nc(N3CCOCC3)nc3c2nc(C)n3-c2cccc(F)c2)c1 [Example 162, (E)-4-(9-(3-fluorophenyl)-8-methyl-6-(2-(3-methylbenzylidene)hydrazinyl)-9H-purin-2-yl)morpholine]
54.29	Cc1cccc(/C=N/Nc2nc(N3CCOCC3)nc3c2nc(C)n3-c2cccc(Cl)c2)c1 [Example 163, (E)-4-(9-(3-chlorophenyl)-8-methyl-6-(2-(3-methylbenzylidene)hydrazinyl)-9H-purin-2-yl)morpholine]
